Measurements reported in ChEMBL document CHEMBL1201861, “Genomics of Drug Sensitity in Cancer screening data, Wellcome Trust Sanger Institute”.

What was measured:
Test in all cases: cells
NCI-H1693 = format: functional, cell-based, Homo sapiens; conditions: Homo sapiens, NCI-H1693;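 note: growth inhibition of the human cell line, read out with a cell viability assay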
Description: SANGER: Inhibition of human NCI-H1693 cell growth in a cell viability assay.

no-10 = format: functional, cell-based, Homo sapiens; conditions: Homo sapiens;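 note: growth inhibition of no-10 cells, read out with a cell viability assay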
Description: SANGER: Inhibition of human no-10 cell growth in a cell viability assay.

SCC-4 = format: functional, cell-based, Homo sapiens; conditions: Homo sapiens, SCC-4;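 note: growth inhibition of human SCC-4 cells, read out as cell viability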
Description: SANGER: Inhibition of human SCC-4 cell growth in a cell viability assay.

RXF 393 = format: functional, cell-based; conditions: Homo sapiens;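 note: growth inhibition of human RXF 393 cells, read out with a cell viability assay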
Description: SANGER: Inhibition of human RXF393 cell growth in a cell viability assay.

NCI-H510A = format: functional, cell-based; conditions: Homo sapiens;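 note: growth inhibition of NCI-H510A cells, read out with a cell viability assay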
Description: SANGER: Inhibition of human NCI-H510A cell growth in a cell viability assay.

NCI-H1838 = format: functional, cell-based, Homo sapiens; conditions: Homo sapiens, NCI-H1838;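 note: growth inhibition of NCI-H1838 cells, determined with a cell viability readout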
Description: SANGER: Inhibition of human NCI-H1838 cell growth in a cell viability assay.

SW1710 = format: functional, cell-based, Homo sapiens; conditions: Homo sapiens, SW1710;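 note: growth inhibition of SW1710 cells, determined with a cell viability assay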
Description: SANGER: Inhibition of human SW1710 cell growth in a cell viability assay.

KG-1 = format: functional, cell-based; conditions: Homo sapiens;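 note: growth inhibition of KG-1 cells, read out by a cell viability assay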
Description: SANGER: Inhibition of human KG-1 cell growth in a cell viability assay.

COLO-741 = format: functional, cell-based, Homo sapiens; conditions: Homo sapiens, COLO-741
Description: SANGER: Inhibition of human COLO-741 cell growth in a cell viability assay.

Huh-7 = format: functional, cell-based, Homo sapiens; conditions: Homo sapiens, Huh-7;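 note: HuH-7 cell growth inhibition, read out with a cell viability assay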
Description: SANGER: Inhibition of human HuH-7 cell growth in a cell viability assay.

SCC-9 = format: functional, cell-based, Homo sapiens; conditions: Homo sapiens, SCC-9;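 note: Read-out is a cell viability assay, with values giving inhibition of cell growth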
Description: SANGER: Inhibition of human SCC-9 cell growth in a cell viability assay.

RVH-421 = format: functional, cell-based, Homo sapiens; conditions: Homo sapiens, RVH-421
Description: SANGER: Inhibition of human RVH-421 cell growth in a cell viability assay.

HEC-1 = format: functional, cell-based, Homo sapiens; conditions: Homo sapiens, HEC-1;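 note: growth inhibition of the cell line, read out with a cell viability assay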
Description: SANGER: Inhibition of human HEC-1 cell growth in a cell viability assay.

CAMA-1 = format: functional, cell-based, Homo sapiens; conditions: Homo sapiens, CAMA-1;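 note: growth inhibition of CAMA-1 cells, read out with a cell viability assay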
Description: SANGER: Inhibition of human CAMA-1 cell growth in a cell viability assay.

NKM-1 = format: functional, cell-based; conditions: Homo sapiens;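 note: growth inhibition of NKM-1 cells, read out with a cell viability assay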
Description: SANGER: Inhibition of human NKM-1 cell growth in a cell viability assay.

MC116 = format: functional, cell-based; conditions: Homo sapiens;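 note: growth inhibition of MC116 cells, read out with a cell viability assay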
Description: SANGER: Inhibition of human MC116 cell growth in a cell viability assay.

A101D = format: functional, cell-based, Homo sapiens; conditions: Homo sapiens, A101D;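 note: growth inhibition of the cell line, measured with a viability assay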
Description: SANGER: Inhibition of human A101D cell growth in a cell viability assay.

MHH-PREB-1 = format: functional, cell-based; conditions: Homo sapiens;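 note: cell viability assay measuring inhibition of proliferation of human MHH-PREB-1 cells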
Description: SANGER: Inhibition of human MHH-PREB-1 cell growth in a cell viability assay.

AGS = format: functional, cell-based, Homo sapiens; conditions: Homo sapiens, AGS;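 note: growth inhibition of AGS cells, determined with a cell viability assay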
Description: SANGER: Inhibition of human AGS cell growth in a cell viability assay.

EGI-1 = format: functional, cell-based, Homo sapiens; conditions: Homo sapiens, EGI-1;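 note: cell viability readout used to gauge growth inhibition of EGI-1 cells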
Description: SANGER: Inhibition of human EGI-1 cell growth in a cell viability assay.

SAOS-2 = format: functional, cell-based, Homo sapiens; conditions: Homo sapiens, SAOS-2;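 note: growth inhibition of human Saos-2 cells determined by a cell viability assay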
Description: SANGER: Inhibition of human Saos-2 cell growth in a cell viability assay.

LS-513 = format: functional, cell-based, Homo sapiens; conditions: Homo sapiens, LS-513
Description: SANGER: Inhibition of human LS-513 cell growth in a cell viability assay.

SHP77 = format: functional, cell-based, Homo sapiens, SHP-77; conditions: Homo sapiens, SHP77;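 note: growth inhibition of human SHP-77 cells measured by a cell viability assay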
Description: SANGER: Inhibition of human SHP-77 cell growth in a cell viability assay.

NCI-H28 = format: functional, cell-based, Homo sapiens; conditions: Homo sapiens, NCI-H28;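 note: growth inhibition of human NCI-H28 cells, read out as cell viability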
Description: SANGER: Inhibition of human NCI-H28 cell growth in a cell viability assay.

no-11 = format: functional, cell-based, Homo sapiens; conditions: Homo sapiens;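 note: growth inhibition of human NO-11 cells, read out with a cell viability assay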
Description: SANGER: Inhibition of human no-11 cell growth in a cell viability assay.

U-87 MG = format: functional, cell-based, U-87MG ATCC; conditions: Homo sapiens;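 note: growth inhibition of the cells measured with a viability assay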
Description: SANGER: Inhibition of human U-87-MG cell growth in a cell viability assay.

NCI-H520 = format: functional, cell-based, Homo sapiens; conditions: Homo sapiens, NCI-H520;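 note: growth inhibition of NCI-H520 cells, measured by a cell viability assay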
Description: SANGER: Inhibition of human NCI-H520 cell growth in a cell viability assay.

BT-20 = format: functional, cell-based, Homo sapiens; conditions: Homo sapiens, BT-20;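 note: cell viability assay measuring suppression of growth in human BT-20 cells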
Description: SANGER: Inhibition of human BT-20 cell growth in a cell viability assay.

NCI-H650 = format: functional, cell-based, Homo sapiens; conditions: Homo sapiens, NCI-H650;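 note: growth inhibition of NCI-H650 cells, read out by a viability assay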
Description: SANGER: Inhibition of human NCI-H650 cell growth in a cell viability assay.

HCE-T = format: functional, cell-based, Homo sapiens; conditions: Homo sapiens, HCE-T;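 note: cell viability assay read-out, reporting inhibition of HCE-T cell growth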
Description: SANGER: Inhibition of human HCE-T cell growth in a cell viability assay.

SW48 = format: functional, cell-based, Homo sapiens; conditions: Homo sapiens, SW48;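 note: growth inhibition of SW48 cells, read out with a cell viability assay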
Description: SANGER: Inhibition of human SW48 cell growth in a cell viability assay.

LK-2 = format: functional, cell-based, Homo sapiens; conditions: Homo sapiens, LK-2;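 note: growth inhibition of LK-2 cells, read out with a viability assay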
Description: SANGER: Inhibition of human LK-2 cell growth in a cell viability assay.

8305C = format: functional, cell-based, Homo sapiens; conditions: Homo sapiens, 8305C
Description: SANGER: Inhibition of human 8305C cell growth in a cell viability assay.

NTERA-2-cl-D1 = format: functional, cell-based, Homo sapiens; conditions: Homo sapiens, NTERA-2-cl-D1;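 note: inhibition of cell growth, measured with a cell viability assay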
Description: SANGER: Inhibition of human NTERA-S-cl-D1 cell growth in a cell viability assay.

EFM-19 = format: functional, cell-based, Homo sapiens; conditions: Homo sapiens, EFM-19;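 note: growth inhibition of human EFM-19 cells, measured in a cell viability assay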
Description: SANGER: Inhibition of human EFM-19 cell growth in a cell viability assay.

NCI-H747 = format: functional, cell-based; conditions: Homo sapiens;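 note: growth inhibition of human NCI-H747 cells, read out by a cell viability assay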
Description: SANGER: Inhibition of human NCI-H747 cell growth in a cell viability assay.

U-266 = format: functional, cell-based; conditions: Homo sapiens
Description: SANGER: Inhibition of human U-266 cell growth in a cell viability assay.

RKO = format: functional, cell-based, Homo sapiens; conditions: Homo sapiens, RKO;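 note: growth inhibition of human RKO cells, read out with a cell viability assay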
Description: SANGER: Inhibition of human RKO cell growth in a cell viability assay.

CGTH-W-1 = format: functional, cell-based, Homo sapiens; conditions: Homo sapiens, CGTH-W-1;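 note: growth inhibition of human CGTH-W-1 cells measured by cell viability assay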
Description: SANGER: Inhibition of human CGTH-W-1 cell growth in a cell viability assay.

CAL-27 = format: functional, cell-based, Homo sapiens; conditions: Homo sapiens, CAL-27;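 note: Viability-based readout, IC50 reflecting inhibition of CAL-27 cell growth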
Description: SANGER: Inhibition of human CAL-27 cell growth in a cell viability assay.

M14 = format: functional, cell-based, Homo sapiens; conditions: Homo sapiens, M14;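 note: growth inhibition of M14 cells, read out with a cell viability assay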
Description: SANGER: Inhibition of human M14 cell growth in a cell viability assay.

CTB-1 = format: functional, cell-based; conditions: Homo sapiens
Description: SANGER: Inhibition of human CTB-1 cell growth in a cell viability assay.

Lu-65 = format: functional, cell-based; conditions: Homo sapiens;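 note: growth inhibition of Lu-65 cancer cells, read out by a cell viability assay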
Description: SANGER: Inhibition of human LU-65 cell growth in a cell viability assay.

HDLM-2 = format: functional, cell-based; conditions: Homo sapiens;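 note: cell viability assay measuring suppression of HDLM-2 proliferation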
Description: SANGER: Inhibition of human HDLM-2 cell growth in a cell viability assay.

SW1463 = format: functional, cell-based, Homo sapiens; conditions: Homo sapiens, SW1463;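 note: growth inhibition of SW1463 cells, determined with a cell viability assay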
Description: SANGER: Inhibition of human SW1463 cell growth in a cell viability assay.

NCI-H2342 = format: functional, cell-based; conditions: Homo sapiens;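 note: growth inhibition of the cancer cell line, determined with a cell viability assay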
Description: SANGER: Inhibition of human NCI-H2342 cell growth in a cell viability assay.

NCI-N87 = format: functional, cell-based, Homo sapiens; conditions: Homo sapiens, NCI-N87;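 note: growth inhibition of human NCI-N87 cells, read out with a cell viability assay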
Description: SANGER: Inhibition of human NCI-N87 cell growth in a cell viability assay.

CaR-1 = format: functional, cell-based, Homo sapiens; conditions: Homo sapiens, CaR-1;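 note: growth inhibition of human CaR-1 cancer cells, read out with a cell viability assay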
Description: SANGER: Inhibition of human CaR-1 cell growth in a cell viability assay.

MKN-1 = format: functional, cell-based, Homo sapiens; conditions: Homo sapiens, MKN-1;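 note: growth inhibition of human MKN1 cells, read out by a cell viability measurement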
Description: SANGER: Inhibition of human MKN1 cell growth in a cell viability assay.

SW13 = format: functional, cell-based, Homo sapiens; conditions: Homo sapiens, SW13;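 note: IC50 is inhibition of SW13 cell growth, read out with a cell viability assay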
Description: SANGER: Inhibition of human SW13 cell growth in a cell viability assay.

ES5 = format: functional, cell-based, Homo sapiens; conditions: Homo sapiens, ES5;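 note: growth inhibition of human ES5 cells, read out by a cell viability assay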
Description: SANGER: Inhibition of human ES5 cell growth in a cell viability assay.

RCC10RGB = format: functional, cell-based, Homo sapiens; conditions: Homo sapiens, RCC10RGB;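 note: growth inhibition of human RCC10RGB cells, read out by a cell viability assay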
Description: SANGER: Inhibition of human RCC10RGB cell growth in a cell viability assay.

CC(=O)O[C@@]12CO[C@@H]1C[C@H](O)[C@@]1(C)C(=O)[C@H](O)C3=C(C)[C@@H](OC(=O)[C@H](O)[C@@H](NC(=O)OC(C)(C)C)c4ccccc4)C[C@@](O)([C@@H](OC(=O)c4ccccc4)[C@H]21)C3(C)C [DOCETAXEL]
IC50 (NCI-H1693): > 10 nM | IC50 (no-10): 7.88 nM | IC50 (SCC-4): 0.739 nM | IC50 (RXF 393): 2.22 nM | IC50 (NCI-H510A): 0.336 nM | IC50 (NCI-H1838): > 10 nM | IC50 (SW1710): 0.466 nM | IC50 (KG-1): > 10 nM | IC50 (COLO-741): 8.2 nM | IC50 (Huh-7): > 10 nM | IC50 (SCC-9): 1.32 nM | IC50 (RVH-421): 4.61 nM | IC50 (HEC-1): 3.03 nM | IC50 (CAMA-1): 1.31 nM | IC50 (NKM-1): > 10 nM | IC50 (MC116): > 10 nM | IC50 (A101D): > 10 nM | IC50 (MHH-PREB-1): 1.89 nM | IC50 (AGS): 3.28 nM | IC50 (EGI-1): 3.62 nM | IC50 (SAOS-2): 1.68 nM | IC50 (LS-513): > 10 nM | IC50 (SHP77): > 10 nM | IC50 (NCI-H28): 3.34 nM | IC50 (no-11): > 10 nM | IC50 (U-87 MG): 3.55 nM | IC50 (NCI-H520): 3.72 nM | IC50 (BT-20): 3.76 nM | IC50 (NCI-H650): 2.25 nM | IC50 (HCE-T): 0.162 nM | IC50 (SW48): 1.01 nM | IC50 (LK-2): 1.21 nM | IC50 (8305C): 5.76 nM | IC50 (NTERA-2-cl-D1): 0.773 nM | IC50 (EFM-19): 2.15 nM | IC50 (NCI-H747): > 10 nM | IC50 (U-266): 3.48 nM | IC50 (RKO): 0.989 nM | IC50 (CGTH-W-1): 0.542 nM | IC50 (CAL-27): 0.339 nM | IC50 (M14): 1.91 nM | IC50 (CTB-1): 1.92 nM | IC50 (Lu-65): > 10 nM | IC50 (HDLM-2): > 10 nM | IC50 (SW1463): > 10 nM | IC50 (NCI-H2342): > 10 nM | IC50 (NCI-N87): > 10 nM | IC50 (CaR-1): 3.27 nM | IC50 (MKN-1): > 10 nM | IC50 (SW13): 1.69 nM | IC50 (ES5): 0.91 nM | IC50 (RCC10RGB): > 10 nM
